Reference: patent US20260207578A1, “COMPOUND BASED ON SULFUR/OXYGEN SUBSTITUTED GLUTARIMIDE-BASED ISOINDOLINONE SKELETON AND USE THEREOF” (Gluetacs Therapeutics (Shanghai) Co., LTD., priority 2022, published 2026)

Legend:
Wee1 = biological target: T1, Wee1 (Homo sapiens, UniProt P30291+Q96SW2); test: Western-blot assay, substrate protein in hPBMCs; format: cell-based; details: hPBMC cells, 24 hours, tested at 50 nM and 500 nM, table does not say which
T1 construct: endogenous in cells; host or cells: human PBMCs (Milecell Biotechnologies)
T1 sequence (P30291 whole entry): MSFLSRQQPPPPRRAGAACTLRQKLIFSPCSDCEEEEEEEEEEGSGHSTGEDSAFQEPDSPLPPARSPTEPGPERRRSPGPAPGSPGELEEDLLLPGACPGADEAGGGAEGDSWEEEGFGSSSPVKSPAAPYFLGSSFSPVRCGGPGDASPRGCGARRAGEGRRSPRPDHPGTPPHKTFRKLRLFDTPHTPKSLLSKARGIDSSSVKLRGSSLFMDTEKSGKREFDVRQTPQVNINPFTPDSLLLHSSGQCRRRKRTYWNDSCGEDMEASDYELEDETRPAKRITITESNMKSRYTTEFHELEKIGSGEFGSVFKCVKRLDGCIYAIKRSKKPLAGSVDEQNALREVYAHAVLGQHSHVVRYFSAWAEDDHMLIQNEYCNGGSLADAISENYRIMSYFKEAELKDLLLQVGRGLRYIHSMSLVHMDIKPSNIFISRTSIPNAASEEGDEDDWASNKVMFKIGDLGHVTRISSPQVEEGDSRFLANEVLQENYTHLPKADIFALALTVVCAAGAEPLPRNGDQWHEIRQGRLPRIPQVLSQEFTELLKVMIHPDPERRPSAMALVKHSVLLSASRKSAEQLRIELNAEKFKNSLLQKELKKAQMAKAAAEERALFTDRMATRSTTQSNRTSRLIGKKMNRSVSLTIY
T1 sequence (Q96SW2 whole entry): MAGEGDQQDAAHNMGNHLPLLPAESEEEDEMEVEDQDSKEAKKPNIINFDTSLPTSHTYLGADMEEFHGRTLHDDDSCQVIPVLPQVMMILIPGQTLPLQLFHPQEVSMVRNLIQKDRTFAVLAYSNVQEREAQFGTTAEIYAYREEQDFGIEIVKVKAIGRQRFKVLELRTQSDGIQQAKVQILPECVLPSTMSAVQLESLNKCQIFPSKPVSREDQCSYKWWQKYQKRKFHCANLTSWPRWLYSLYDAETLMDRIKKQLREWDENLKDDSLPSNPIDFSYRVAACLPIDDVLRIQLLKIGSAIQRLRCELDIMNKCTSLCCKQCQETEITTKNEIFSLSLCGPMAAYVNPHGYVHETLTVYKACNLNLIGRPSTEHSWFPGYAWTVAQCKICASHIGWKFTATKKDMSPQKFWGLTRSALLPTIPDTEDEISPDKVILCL
T1 sequence (Q16531 whole entry partner): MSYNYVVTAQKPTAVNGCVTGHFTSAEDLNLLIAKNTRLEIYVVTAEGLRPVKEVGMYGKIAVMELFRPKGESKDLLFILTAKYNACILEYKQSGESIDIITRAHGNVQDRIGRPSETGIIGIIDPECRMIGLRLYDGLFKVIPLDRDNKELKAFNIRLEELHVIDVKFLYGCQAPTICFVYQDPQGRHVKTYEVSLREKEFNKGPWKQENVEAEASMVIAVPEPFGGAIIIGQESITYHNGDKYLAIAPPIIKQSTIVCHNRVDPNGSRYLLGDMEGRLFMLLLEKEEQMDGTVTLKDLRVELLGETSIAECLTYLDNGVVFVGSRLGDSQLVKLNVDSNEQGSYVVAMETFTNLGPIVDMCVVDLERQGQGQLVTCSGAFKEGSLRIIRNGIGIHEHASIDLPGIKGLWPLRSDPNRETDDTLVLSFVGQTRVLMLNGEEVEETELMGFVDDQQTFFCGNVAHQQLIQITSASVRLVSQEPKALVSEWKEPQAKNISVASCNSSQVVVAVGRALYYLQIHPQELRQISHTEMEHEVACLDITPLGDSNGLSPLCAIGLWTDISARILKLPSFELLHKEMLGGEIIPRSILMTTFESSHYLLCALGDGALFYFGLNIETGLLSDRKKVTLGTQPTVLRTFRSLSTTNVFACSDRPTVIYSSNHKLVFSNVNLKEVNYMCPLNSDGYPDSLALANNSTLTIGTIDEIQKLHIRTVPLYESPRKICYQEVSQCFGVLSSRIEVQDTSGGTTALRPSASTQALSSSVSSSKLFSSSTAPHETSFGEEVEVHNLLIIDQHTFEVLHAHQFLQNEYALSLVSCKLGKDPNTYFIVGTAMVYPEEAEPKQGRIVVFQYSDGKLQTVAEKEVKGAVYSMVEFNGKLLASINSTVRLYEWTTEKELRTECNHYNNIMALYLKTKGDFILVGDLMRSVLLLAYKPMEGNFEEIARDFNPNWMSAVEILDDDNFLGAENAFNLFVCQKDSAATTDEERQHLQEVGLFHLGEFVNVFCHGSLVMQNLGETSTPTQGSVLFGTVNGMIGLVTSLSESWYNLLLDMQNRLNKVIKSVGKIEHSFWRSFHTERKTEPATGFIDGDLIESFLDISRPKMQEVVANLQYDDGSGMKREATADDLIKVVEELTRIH
Protocol: (§1) The effect of the compounds of the present disclosure on the expression of target proteins in cells was detected using conventional Western blot analysis.
(§2) Human peripheral blood mononuclear cells (hPBMCs) at a density of 1×10^6 cells/mL were thawed according to the PBMC Recovery Protocol (Milecell Biotechnologies Inc, Shanghai).
(§3) After 24 hours of compounds treatment, cells were harvested and lysed in RIPA protein lysate containing phosphatase inhibitors on ice for 30-60 min, followed by centrifugation. The supernatant was aspirated as the extracted total cell protein. The protein concentration of the supernatant was determined using the conventional BCA (Bicinchoninic Acid) assay. The supernatant was then mixed with 4× SDS sample loading buffer, denatured at 95° C. for 5 minutes, and then subjected to SDS-PAGE electrophoresis on a polyacrylamide gel. Proteins were then transferred to a nitrocellulose (NC) membrane, blocked at room temperature for 1-2 h, and processed for antibody incubation and detection according to the manufacturer's instructions (Cell Signaling Technology).
(§4) Half-Maximal Degradation Concentration value (the drug concentration required for degrading proteins by 50%, abbreviated as DC50) reads method: comparing the grayscale values of Western blot bands from drug-treated samples with those from blank DMSO-treated controls, and identifying the drug concentration range at which the grayscale value is half that of the DMSO-treated control bands.
(§5) DC50 values can be calculated using ImageJ software to measure grayscale values of Western blot bands from drug-treated samples. The concentration-response curve is fitted to estimate the drug concentration corresponding to half the grayscale value.
(§6) Target protein remaining (%) refers to the percentage of target protein remaining in hPBMC cells after treatment with protein degrader compounds.
(§7) Calculation method for protein remaining (%): Use ImageJ software to measure grayscale values of Western blot bands from drug (protein degrader)-treated samples. The grayscale value of drug-treated bands is divided by that of internal control protein bands, and the resulting quotient is normalized to obtain the relative percentage of remaining target protein after protein degrader treatment.
(§8) Target protein degradation rate (%)=100%−target protein remaining (%).

[1] = biological target: T2, human Cereblon WT GST-tagged protein (Homo sapiens, UniProt Q96SW2); test: CRBN-binding affinity, HTRF (CEREBLON BINDING kit); details: displacement of Thalidomide-Re reagent, 3 hours at room temperature
T2 construct: purchased CISBIO 64BDCRBNPEH
T2 sequence (Q96SW2 whole entry): as the sequence (Q96SW2 whole entry) above
Protocol: The CEREBLON BINDING kits (specification: 10,000 tests; product number: Catalog #64BDCRBNPEH; CISBIO company) was used to determine the CRBN binding ability of the compounds to be tested through a HTRF method (homogeneous time-resolved fluorescence). The specific methods are as follows: • 1. […] Then, 2.5 μL of human Cereblon WT GST-tagged protein solution was added to each well. Finally, 5 μL of the thoroughly mixed Thalidomide-Re reagent and GST Eu antibody working solution were added to each of the aforementioned wells. […] The blank control wells were sequentially added with 2.5 μL of diluent #9 (1×) solution, 2.5 μL of PROTAC binding buffer, and 5 μL of thoroughly mixed Thalidomide-Re reagent and GST Eu antibody working solution. • 4.
OD 620 nmcompound is the absorbance value of each well of the compounds to be tested of the present disclosure at an emission wavelength of 620 nm. […] OD 620 nmcontrol is the absorbance value of the blank control well at an emission wavelength of 620 nm. […] OD 620 nmStd0 is the absorbance value of the solvent control well at an emission wavelength of 620 nm.

GSPT1 = biological target: T3, GSPT1 (Homo sapiens, UniProt P15170+Q96SW2); test: Western-blot assay, substrate protein in hPBMCs; format: cell-based; details: hPBMC cells, 24 hours, tested at 50 nM and 500 nM, table does not say which
T3 construct: endogenous in cells; host or cells: human PBMCs (Milecell Biotechnologies)
T3 sequence (P15170 whole entry): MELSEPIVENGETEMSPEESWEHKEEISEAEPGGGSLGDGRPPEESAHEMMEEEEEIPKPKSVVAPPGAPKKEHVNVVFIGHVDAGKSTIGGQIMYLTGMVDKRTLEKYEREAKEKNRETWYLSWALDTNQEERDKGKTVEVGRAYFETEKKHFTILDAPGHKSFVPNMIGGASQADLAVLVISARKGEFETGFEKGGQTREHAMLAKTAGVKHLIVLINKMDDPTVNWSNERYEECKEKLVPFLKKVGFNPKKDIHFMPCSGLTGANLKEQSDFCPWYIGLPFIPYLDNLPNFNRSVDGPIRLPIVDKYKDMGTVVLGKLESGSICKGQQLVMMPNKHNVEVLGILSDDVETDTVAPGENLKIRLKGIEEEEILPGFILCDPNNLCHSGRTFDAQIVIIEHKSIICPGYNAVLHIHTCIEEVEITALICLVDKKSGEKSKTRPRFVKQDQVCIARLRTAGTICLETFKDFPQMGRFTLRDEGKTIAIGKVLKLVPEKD
T3 sequence (Q96SW2 whole entry): as the sequence (Q96SW2 whole entry) above
T3 sequence (Q16531 whole entry partner): as the sequence (Q16531 whole entry partner) above
Protocol: as §1, §2, §3, §4, §5, §6, §7, §8

Structure (SMILES)	substrate protein remaining % (Wee1)	IC50 [1] [nM]	substrate protein remaining % (GSPT1)
O=C1CCC(N2Cc3cc(OC4CNC4)ccc3C2=O)C(=O)N1 (centres unmarked) [GT-03614, 3-(5-(azetidin-3-yloxy)-1-oxoisoindolin-2-yl)piperidine-2,6-dione]	A (0%≤ substrate protein remaining % ≤80%)		
O=C1CCC(N2Cc3cc(SC4CCN(Cc5ccccc5-c5ccc(Cl)cc5)C4)ccc3C2=O)C(=O)N1 (centres unmarked) [GT-04195, 3-(5-((1-((4′-chloro-[1,1′-biphenyl]-2-yl)methyl)pyrrolidin-3-yl)thio)-1-oxoisoindolin-2-yl)piperidine-2,6-dione]		1000 to 1900	
O=C1CCC(N2Cc3cc(SC4CCNC4)ccc3C2=O)C(=O)N1 (centres unmarked) [GT-04309, 3-(1-oxo-5-(pyrrolidin-3-ylthio)isoindolin-2-yl)piperidine-2,6-dione]			A (0%≤ substrate protein remaining % ≤80%)
CC1(C)CCC(C(=O)N2CCC(Sc3ccc4c(c3)CN(C3CCC(=O)NC3=O)C4=O)C2)=C(c2ccc(Cl)cc2)C1 (centres unmarked) [GT-06139, 3-(5-((1-(4′-chloro-5,5-dimethyl-3,4,5,6-tetrahydro-[1,1′-biphenyl]-2-carbonyl)pyrrolidin-3-yl)thio)-1-oxoisoindolin-2-yl)piperidine-2,6-dione]		500 to 1000	
CC1(C)CCC(C(=O)N2CCC(Sc3ccc4c(c3)CN(C3CCC(=O)NC3=O)C4=O)CC2)=C(c2ccc(Cl)cc2)C1 (centres unmarked) [GT-06140, 3-(5-((1-(4′-chloro-5,5-dimethyl-3,4,5,6-tetrahydro-[1,1′-biphenyl]-2-carbonyl)piperidin-4-yl)thio)-1-oxoisoindolin-2-yl)piperidine-2,6-dione]	A (0%≤ substrate protein remaining % ≤80%)	500 to 1000	
O=C1CCC(N2Cc3cc(OC4CN(C(=O)c5ccccc5-c5ccc(Cl)cc5)C4)ccc3C2=O)C(=O)N1 (centres unmarked) [GT-06183, 3-(5-((1-(4′-chloro-[1,1′-biphenyl]-2-carbonyl)azetidin-3-yl)oxy)-1-oxoisoindolin-2-yl)piperidine-2,6-dione]	A (0%≤ substrate protein remaining % ≤80%)	< 500	
O=C1CCC(N2Cc3cc(SC4CN(C(c5ccc(Cl)cc5)c5ccc(Cl)cc5)C4)ccc3C2=O)C(=O)N1 (centres unmarked) [GT-06504, 3-(5-((1-(bis(4-chlorophenyl)methyl)azetidin-3-yl)thio)-1-oxoisoindolin-2-yl)piperidine-2,6-dione]		500 to 1000	
O=C1CCC(N2Cc3cc(SC4CN(CC5=C(c6ccc(F)cc6)CCOC5)C4)ccc3C2=O)C(=O)N1 (centres unmarked) [GT-06513, 3-(5-((1-((4-(4-fluorophenyl)-5,6-dihydro-2H-pyran-3-yl)methyl)azetidin-3-yl)thio)-1-oxoisoindolin-2-yl)piperidine-2,6-dione]		< 500	A (0%≤ substrate protein remaining % ≤80%)
O=C1CCC(N2Cc3cc(SC4CN(Cc5ccc(-c6ccco6)s5)C4)ccc3C2=O)C(=O)N1 (centres unmarked) [GT-06517, 3-(5-((1-((5-(furan-2-yl)thiophen-2-yl)methyl)azetidin-3-yl)thio)-1-oxoisoindolin-2-yl)piperidine-2,6-dione]		< 500	
O=C1CCC(N2Cc3cc(OC4CN(C(c5ccc(Cl)cc5)c5ccc(Cl)cc5)C4)ccc3C2=O)C(=O)N1 (centres unmarked) [GT-06520, 3-(5-((1-(bis(4-chlorophenyl)methyl)azetidin-3-yl)oxy)-1-oxoisoindolin-2-yl)piperidine-2,6-dione]		1000 to 1900	A (0%≤ substrate protein remaining % ≤80%)
O=C1CCC(N2Cc3cc(SC4CCCN(C(=O)c5ccccc5-c5ccc(Cl)cc5)CC4)ccc3C2=O)C(=O)N1 (centres unmarked) [GT-06644, 3-(5-((1-(4′-chloro-[1,1′-biphenyl]-2-carbonyl)azepan-4-yl)thio)-1-oxoisoindolin-2-yl)piperidine-2,6-dione]		< 500	A (0%≤ substrate protein remaining % ≤80%)
CC1(C)CCC(CN2CC(Sc3ccc4c(c3)C(=O)N(C3CCC(=O)NC3=O)C4)C2)=C(c2ccc(Cl)cc2)C1 (centres unmarked) [GT-06757, 3-(6-((1-((4′-chloro-5,5-dimethyl-3,4,5,6-tetrahydro-[1,1′-biphenyl]-2-yl)methyl)azetidin-3-yl)thio)-1-oxoisoindolin-2-yl)piperidine-2,6-dione]		1000 to 1900	
O=C1CCC(N2Cc3cc(SC4CN(C(c5ccccc5)c5cccnc5)C4)ccc3C2=O)C(=O)N1 (centres unmarked) [GT-06807, 3-(1-oxo-5-((1-(phenyl(pyridin-3-yl)methyl)azetidin-3-yl)thio)isoindolin-2-yl)piperidine-2,6-dione]		< 500	
COc1ccc(C(c2ccc(OC)cc2)N2CC(Sc3ccc4c(c3)CN(C3CCC(=O)NC3=O)C4=O)C2)cc1 (centres unmarked) [GT-06923, 3-(5-((1-(bis(4-methoxyphenyl)methyl)azetidin-3-yl)thio)-1-oxoisoindolin-2-yl)piperidine-2,6-dione]		< 500	
O=C1CCC(N2Cc3c(SC4CNC4)cccc3C2=O)C(=O)N1 (centres unmarked) [GT-06992, 3-(4-(azetidin-3-ylthio)-1-oxoisoindolin-2-yl)piperidine-2,6-dione]		500 to 1000	
O=C1CCC(N2Cc3ccc(SC4CNC4)cc3C2=O)C(=O)N1 (centres unmarked) [GT-06993, 3-(6-(azetidin-3-ylthio)-1-oxoisoindolin-2-yl)piperidine-2,6-dione]		1000 to 1900	
O=C1CCC(N2Cc3cc(SC4CC5CNCC5C4)ccc3C2=O)C(=O)N1 (centres unmarked) [GT-06996, 3-(5-((octahydrocyclopenta[c]pyrrol-5-yl)thio)-1-oxoisoindolin-2-yl)piperidine-2,6-dione]		1000 to 1900	
O=C1CCC(N2Cc3cc(SC4CCC5(CCNCC5)CC4)ccc3C2=O)C(=O)N1 (centres unmarked) [GT-06998, 3-(5-((3-azaspiro[5.5]undecan-9-yl)thio)-1-oxoisoindolin-2-yl)piperidine-2,6-dione]		1000 to 1900	
O=C1CCC(N2Cc3cc(SC4CCNCC4(F)F)ccc3C2=O)C(=O)N1 (centres unmarked) [GT-06999, 3-(5-((3,3-difluoropiperidin-4-yl)thio)-1-oxoisoindolin-2-yl)piperidine-2,6-dione]		500 to 1000	
O=C1CCC(N2Cc3c(OC4CNC4)cccc3C2=O)C(=O)N1 (centres unmarked) [GT-07000, 3-(4-(azetidin-3-yloxy)-1-oxoisoindolin-2-yl)piperidine-2,6-dione]		< 500	
O=C1CCC(N2Cc3cc(OC4CCCNCC4)ccc3C2=O)C(=O)N1 (centres unmarked) [GT-07003, 3-(5-(azepan-4-yloxy)-1-oxoisoindolin-2-yl)piperidine-2,6-dione]	A (0%≤ substrate protein remaining % ≤80%)		
O=C1CCC(N2Cc3cc(OC4CC5CNCC5C4)ccc3C2=O)C(=O)N1 (centres unmarked) [GT-07004, 3-(5-((octahydrocyclopenta[c]pyrrol-5-yl)oxy)-1-oxoisoindolin-2-yl)piperidine-2,6-dione]		1000 to 1900	
CC1(C)CCC(C(=O)N2CCC(Sc3ccc4c(c3)CN(C3CCC(=O)NC3=O)C4=O)C(F)(F)C2)=C(c2ccc(Cl)cc2)C1 (centres unmarked) [GT-07017, 3-(5-((1-(4′-chloro-5,5-dimethyl-3,4,5,6-tetrahydro-[1,1′-biphenyl]-2-carbonyl)-3,3-difluoropiperidin-4-yl)thio)-1-oxoisoindolin-2-yl)piperidine-2,6-dione]		1000 to 1900	
CC1(C)CCC(C(=O)N2CCCC(Oc3ccc4c(c3)CN(C3CCC(=O)NC3=O)C4=O)CC2)=C(c2ccc(Cl)cc2)C1 (centres unmarked) [GT-07018, 3-(5-((1-(4′-chloro-5,5-dimethyl-3,4,5,6-tetrahydro-[1,1′-biphenyl]-2-carbonyl)azepan-4-yl)oxy)-1-oxoisoindolin-2-yl)piperidine-2,6-dione]		< 500	
